Reference: PubChem BioAssay AID2744 (NMMLSC, 2010)
Activity calls are given as the source filed them.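 The calls were made as follows: active = fitted half-maximal concentration for changing reporter fluorescence at or below a set limit; inactive = the rest.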

Target: Citrate synthase, peroxisomal (Saccharomyces cerevisiae (strain ATCC 204508 / S288c)) (UniProt P08679)
Test: CIT2-GFP expression modulators in yeast, dose response, flow cytometry, MLPCN hits (AID 2744)
Details: S. cerevisiae CIT2-GFP strain, 3 h; for GFP fluorescence, higher = induction: at 33 µM (top of the series); for EC50: flow cytometry fluorescence

Chain of Citrate synthase, peroxisomal (Saccharomyces cerevisiae (strain ATCC 204508 / S288c)) (P08679 whole entry, looked up): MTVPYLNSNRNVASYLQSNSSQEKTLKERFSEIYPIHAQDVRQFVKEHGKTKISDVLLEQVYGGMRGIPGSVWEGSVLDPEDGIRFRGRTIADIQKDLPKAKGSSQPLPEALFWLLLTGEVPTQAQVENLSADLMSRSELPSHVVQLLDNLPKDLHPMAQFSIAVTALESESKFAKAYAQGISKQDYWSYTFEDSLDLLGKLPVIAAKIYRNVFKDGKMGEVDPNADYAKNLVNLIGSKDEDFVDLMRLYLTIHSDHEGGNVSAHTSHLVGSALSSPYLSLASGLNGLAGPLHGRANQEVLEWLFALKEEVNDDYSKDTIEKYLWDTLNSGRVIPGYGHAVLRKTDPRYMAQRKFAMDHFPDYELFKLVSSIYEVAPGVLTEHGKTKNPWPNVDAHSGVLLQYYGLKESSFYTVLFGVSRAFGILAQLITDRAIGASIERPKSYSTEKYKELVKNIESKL

Row | SMILES | GFP fluorescence, higher = induction | EC50
1 | CCOc1ccccc1/C=c1\sc2ncnn2c1=O | inactive | –
2 | O=C(/C=C/c1cccc(Cl)c1)c1nc2ccccc2[nH]1 | inactive | –
3 | O=c1c(-c2ccc(Cl)cc2)[n+]([O-])c2ccccc2n1O | inactive | –
4 | CC1=C(C)/C(=N\OS(=O)(=O)c2ccccc2)C=CC1=O | inactive | –
5 | Cc1cc(O)c(C(=O)/C=C/c2c(F)c(F)c(F)c(F)c2F)c(=O)o1 | inactive | –
6 | Cc1cc(NC(c2ccc(Cl)cc2)c2ccc3cccnc3c2O)no1 (stereo not given) | inactive | –
7 | CC[C@]1(c2ccccc2OC)ON(c2ccccc2C(F)(F)F)C1=O | inactive | –
8 | COc1cccc(/C=N/Nc2ccc([N+](=O)[O-])cn2)c1O | inactive | –
9 | N/C(=N\OC(=O)c1ccccc1Cl)c1ccc(Cl)cc1 | – | 6.14 µM
10 | O=C(CCS(=O)(=O)c1ccccc1)Nc1nc(-c2ccccn2)cs1 | inactive | –
11 | O=C(NC(=S)NNC(=O)c1cnccn1)c1ccc(Cl)cc1 | inactive | –
12 | CC1=NNC(=O)/C1=C\c1cn(-c2ccccc2)nc1-c1cccs1 | inactive | –
13 | Cc1cc(=O)oc2cc(Oc3ccc([N+](=O)[O-])cc3C(F)(F)F)ccc12 | inactive | –
14 | O=C(/C=C/c1cccc([N+](=O)[O-])c1)c1ccc([N+](=O)[O-])o1 | inactive | –
15 | Oc1c(I)cc(Cl)c2cccnc12 | inactive | –
16 | N/C(Cc1ccc(Cl)cc1)=N\OC(=O)c1ccccc1 | – | 3.35 µM
17 | Cc1ccc(S(=O)(=O)ON2C(=O)c3ccccc3C2=O)c(C)c1 | inactive | –
18 | COc1cc(/C=C/c2ccc3c(Br)cc(Br)c(O)c3n2)ccc1O | inactive | –
19 | O=C(Nc1nc(-c2ccccn2)cs1)C1COc2ccccc2O1 (stereo not given) | inactive | –
20 | CCCCCn1c(=O)c(C(=O)Nc2nc3ccccc3[nH]2)c(O)c2ccccc21 | inactive | –
21 | COc1ccc(C(=O)NNC(=S)NC(=O)/C=C/c2cccs2)cc1 | inactive | –
22 | CCN(CC(=O)NC(C)(C)C)C(=O)COc1c(Cl)cc(Cl)c2ccc(C)nc12 | inactive | –
23 | Cc1cc(C)c(OCC(=O)Nc2nc(-c3ccccn3)cs2)c(C)c1 | inactive | –
24 | O=C(Oc1c(Cl)cc(Cl)c2cccnc12)c1ccco1 | inactive | –

Row | SMILES | GFP fluorescence, higher = induction | EC50
25 | O=[N+]([O-])c1cnc(Sc2ccncn2)s1 | inactive | –
26 | CCOC(=O)CS(=O)(=O)c1nc(-c2ccccc2)cc(C(F)(F)F)n1 | inactive | –
27 | COc1cc(/C=C2/C(=O)c3cccc([N+](=O)[O-])c3C2=O)c(Br)cc1O | inactive | –
28 | Cc1cc(C(=O)Nc2nc(-c3ccccn3)cs2)ccc1[N+](=O)[O-] | inactive | –
29 | Cc1ccc(C(=O)Sc2cccccc2=O)cc1 | inactive | –
30 | Cc1ccccc1OCC(=O)NNC(=S)NC(=O)c1ccco1 | inactive | –
31 | Cc1ccc(/C=C/C(=O)c2ccc([N+](=O)[O-])o2)cc1 | inactive | –
32 | CC[C@@]1(c2ccccc2OC)ON(c2ccccc2C(F)(F)F)C1=O | inactive | –
33 | C/C(=N/NC(=O)c1ccc(C(C)(C)C)cc1)c1ccccn1 | inactive | –
34 | CC1=C/C(=N\OS(=O)(=O)c2ccccc2)C(C)=CC1=O | inactive | –
35 | COc1cccc2sc(Nc3nc(-c4ccccn4)cs3)nc12 | inactive | –
36 | Oc1ccc2ccccc2c1/C=N/Nc1nnc(-c2ncc[nH]2)c2ccccc12 | inactive | –
37 | COc1ccc(N/N=C(\C#N)C(N)=O)cc1 | inactive | –
38 | CC(C)(C)c1ccc(NC(=O)COC(=O)c2ccc([N+](=O)[O-])s2)cc1 | inactive | –
39 | CCOC(=O)CS(=O)(=O)c1nc(-c2ccc(F)cc2)cc(C(F)(F)F)n1 | inactive | –
40 | CCCc1cc(NCc2ccccn2)n2nc(C)c(-c3ccccc3)c2n1 | inactive | –
41 | Cc1ccc(C2=NN(S(C)(=O)=O)C(c3ccc4c(c3)OCO4)C2)cc1 (stereo not given) | inactive | –
42 | Cc1c(N2C(=O)/C(=C\c3ccccc3O)SC2=S)c(=O)n(-c2ccccc2)n1C | inactive | –
43 | O=C(Oc1oc(-c2ccco2)nc1C=Nc1ccc(Cl)cc1)c1ccco1 | inactive | –
44 | Cc1ccc2[nH]c(C)c(/C=C/c3cc[n+](C)cc3)c2c1 | inactive | –
45 | CCOC(=O)CSC1=NC(=O)/C(=C/c2ccc(OC)cc2)S1 | inactive | –
46 | O=C1c2ccccc2C(=O)C2OC12 (stereo not given) | inactive | –
47 | O=C(Nc1ccc(O)cc1)C1CCCN1S(=O)(=O)c1ccc(F)cc1 (stereo not given) | inactive | –
48 | COc1ccc(N2C(=O)C(Cl)=C(Nc3c(C)n(C)n(-c4ccccc4)c3=O)C2=O)cc1 | inactive | –

Row | SMILES | GFP fluorescence, higher = induction | EC50
49 | CC(C)[C@]1(c2ccc(Cl)cc2)ON(c2ccccc2C(F)(F)F)C1=O | inactive | –
50 | CCCCc1ccc(/C=C2/C(=O)ON=C2c2ccccc2)s1 | inactive | –
51 | Cc1ccccc1N=Nc1ccc(O)c2ncccc12 | inactive | –
52 | CC(C)[C@]1(c2ccccc2)ON(c2ccccc2C(F)(F)F)C1=O | inactive | –
53 | O=[N+]([O-])c1ccc(S(=O)(=O)c2cccc(C(F)(F)F)c2)nc1 | inactive | –
54 | Cc1cccc(N=Nc2ccc(O)c3ncccc23)c1 | inactive | –
55 | CCc1sc(C(=O)Nc2nc(-c3ccccn3)cs2)cc1C | inactive | –
56 | CSc1nnc2c3cc(F)ccc3n(C)c2n1 | inactive | –
57 | CCCOc1ccc(C(=O)NNC(=S)NC(=O)CC)cc1 | – | 3.1 µM
58 | CC(C)(C)c1nnc(N/N=C/c2cc(Br)ccc2O)n(N)c1=O | inactive | –
59 | Cc1[nH]n(-c2ccccc2)c(=O)c1C(c1ccccc1[N+](=O)[O-])C(C#N)C#N (stereo not given) | inactive | –
60 | COc1cc(N2C(=O)C=CC2=O)c(OC)cc1Cl | inactive | –
61 | CC1(C)OC(c2ccccc2)=C/C(=C/C=C2C(=O)NC(=S)NC2=O)O1 | inactive | –
62 | Cc1ccc(NC(=O)c2cc(N3C(=O)C=CC3=O)ccc2Cl)cc1C | inactive | –
63 | O=C(Oc1cccc2cccnc12)c1ccc(Br)o1 | inactive | –
64 | O=C1Nc2ccc(Br)cc2/C1=C/C(=O)c1ccc2c(c1)OCO2 | inactive | –
65 | COc1ccc(N2CCN(C(=O)c3ccc(Br)cc3)CC2)c([N+](=O)[O-])c1 | inactive | –
66 | CCCc1cc(=O)oc2cc(C)cc(OCC(=O)NC3CC3)c12 | inactive | –
67 | CCOC(=O)c1c(C)oc2c1c(C(c1cccnc1)N1CCOCC1)c(O)c1ccccc12 (stereo not given) | inactive | –
68 | CCn1c(/C=C/c2ccc([N+](=O)[O-])o2)nc2ccccc2c1=O | inactive | –
69 | CCc1cccc2sc(N3CCN(C(=O)c4ccc([N+](=O)[O-])o4)CC3)nc12 | inactive | –
70 | CCOC(=O)c1c(C)oc2c1c(C(c1ccncc1)N1CCOCC1)c(O)c1ccccc12 (stereo not given) | inactive | –
71 | O=C(O)/C=C/C(=O)c1ccc2c(c1)CCc1ccccc1-2 | inactive | –
72 | CC(=O)Oc1oc(-c2ccccc2)nc1C=Nc1ccc(N(C)C)cc1 | inactive | –

Row | SMILES | GFP fluorescence, higher = induction | EC50
73 | O=C(O)c1ccc(COc2ccccc2C=C2C(=O)c3ccccc3C2=O)cc1 | inactive | –
74 | Cc1sc(/C=C2\C(=O)ON=C2c2ccccc2)cc1Br | inactive | –
75 | Cc1nn(C)c(C)c1N1C(=O)c2cccc3c(Br)ccc(c23)C1=O | inactive | –
76 | O=C1CCN(S(=O)(=O)c2ccccc2)CCN1CCOCc1ccc(F)cc1 | inactive | –
77 | Cc1ccc(NC(=O)c2nc(S(=O)(=O)Cc3ccccc3)ncc2Cl)cc1 | inactive | –
78 | COc1cc(SSc2cc(OC)cc([N+](=O)[O-])c2N)c(N)c([N+](=O)[O-])c1 | inactive | –
79 | CC(Oc1ccc(Cl)cc1)C(=O)NNC(=S)NC(=O)c1ccco1 (stereo not given) | inactive | –
80 | Fc1cccc(Nc2ncnc3c2cnn3-c2ccccc2)c1 | inactive | –
81 | O=C(Nc1cccc(-c2csc(Nc3ccccc3)n2)c1)c1ccccc1 | inactive | –
82 | COc1ccc(N=Nc2ccc(O)c3ncccc23)cc1 | inactive | –
83 | CC[C@]1(c2ccccc2C)ON(c2ccccc2C(F)(F)F)C1=O | inactive | –
84 | C/C(=N\NC(=O)c1cccc(Br)c1)c1ccccn1 | inactive | –
85 | N=C1S/C(=C\c2ccco2)C(=O)N1c1nccs1 | inactive | –
86 | CC(C)(C)C(=O)C(Cl)C(=O)Nc1ccccc1 (stereo not given) | inactive | –
87 | CCn1c(=O)c(C(=O)Nc2nc3ccccc3[nH]2)c(O)c2ccccc21 | inactive | –
88 | CCOC(=O)COc1ccc2ccccc2c1/C=C/[N+](=O)[O-] | inactive | –
89 | Cc1ccc2c(c1)c(/C=C/c1cc[n+](C)cc1)c(C)n2C | inactive | –
90 | O=C(Oc1oc(-c2ccco2)nc1C=Nc1ccccc1)c1ccoc1 | inactive | –
91 | CCCN1CCc2c(sc(NC(=S)NC(=O)c3ccccc3)c2C#N)C1 | inactive | –
92 | O=C(O)c1ccc2c(c1)C(=O)/C(=C/c1ccccc1)C2=O | inactive | –
93 | Cc1ccc(-c2nn(C(C)(C)C)c3ncnc(N)c23)cc1 | inactive | –
94 | O=C(/C=C/c1ccccc1)c1cc(Br)ccc(=O)c1O | inactive | –
95 | COc1ccc(C2(C)ON(c3ccccc3C(F)(F)F)C2=O)cc1 (stereo not given) | inactive | –
